Each structure is given as a SMILES string.

In turn, `CC(C)(F)c1cnn2c(-c3ccc(F)c(-c4ccc(F)cc4C#N)c3F)cnc2n1` [Example 3, 3′-[3-(1-Fluoro-1-methylethyl)imidazo[1,2-b][1,2,4]triazin-7-yl]-4,2′,6′-trifluorobiphenyl-2-carbonitrile] yielded a melting point of 166 to 169 °C.
`CC(C)(O)c1cnn2c(-c3ccc(F)c(-c4c(F)cccc4C#N)c3F)cnc2n1` [Example 2, 3′-[3-(1-Hydroxy-1-methylethyl)imidazo[1,2-b][1,2,4]triazin-7-yl]-6,2′,6′-trifluorobiphenyl-2-carbonitrile] displayed a melting point of 177 to 179 °C.
